Literature values in patent EP1121935B1, “Pharmaceutical composition containing a small or medium size peptide” (Patents Exploitation Company B.V., priority 2000, dated 2001).

Experiments:
[1] = solutions free from preservative; polystyrene, polypropylene and glass tubes; 24 hours at room temperature
nasal ciliar motility = conditions: reported by Hofmann T. et al., 1998

Row | Substance | loss of active principle because of the adsorption by the walls [1] | effect on nasal ciliar motility (nasal ciliar motility)
1 | 1-(3-mercaptopropanoic acid)-8-D-argininevasopressin [desmopressin] | about the half | 
2 | benzalkonium chloride |  | irreversible suppression of the nasal ciliar motility
